In patent US10590132B2, “Selective estrogen receptor down-regulators” (AstraZeneca AB, priority 2017, dated 2020):

Assay: Human plasma protein binding (equilibrium dialysis)
Type: in vitro ADME
Conditions: dialysis 18 hours

SMILES	Human plasma protein binding (% free)
C[C@@H]1Cc2c([nH]c3cccc(F)c23)[C@@H](c2c(F)ccc(OCCNCCCF)c2F)N1CC(F)(F)CO [Example 62, 3-((1R,3R)-1-(2,6-difluoro-3-(2-((3-fluoropropyl)amino)ethoxy)phenyl)-5-fluoro-3-methyl-1,3,4,9-tetrahydro-2H-pyrido[3,4-b]indol-2-yl)-2,2-difluoropropan-1-ol]	1.2 % free
C[C@@H]1Cc2c([nH]c3ccc(F)cc23)[C@@H](c2c(F)cnc(OCCN(C)CCCF)c2F)N1CC(F)(F)CO [Example 67, 3-((1R,3R)-1-(3,5-difluoro-2-(2-((3-fluoropropyl)(methyl)amino)ethoxy)pyridin-4-yl)-6-fluoro-3-methyl-1,3,4,9-tetrahydro-2H-pyrido[3,4-b]indol-2-yl)-2,2-difluoropropan-1-ol]	1.6 % free
COc1ccc(OC[C@@H](C)NCCCF)cc1[C@@H]1c2[nH]c3ccccc3c2C[C@@H](C)N1CC(F)(F)CO [Example 50, 2,2-difluoro-3-((1R,3R)-1-(5-((R)-2-((3-fluoropropyl)amino)propoxy)-2-methoxyphenyl)-3-methyl-1,3,4,9-tetrahydro-2H-pyrido[3,4-b]indol-2-yl)propan-1-ol]	7.1 % free
Cc1c([C@@H]2c3[nH]c4ccccc4c3C[C@@H](C)N2CC(F)(F)CO)ccnc1OCCNCCCF [Example 103, 2,2-difluoro-3-((1R,3R)-1-(2-(2-((3-fluoropropyl)amino)ethoxy)-3-methylpyridin-4-yl)-3-methyl-1,3,4,9-tetrahydro-2H-pyrido[3,4-b]indol-2-yl)propan-1-ol]	2 % free
COc1ccc(OCCNCCCF)cc1[C@@H]1c2[nH]c3ccccc3c2C[C@@H](C)N1C[C@H](C)C(=O)O [Example 53, (S)-3-((1R,3R)-1-(5-(2-((3-fluoropropyl)amino)ethoxy)-2-methoxyphenyl)-3-methyl-1,3,4,9-tetrahydro-2H-pyrido[3,4-b]indol-2-yl)-2-methylpropanoic acid]	80 % free
Cc1c(OCCN(C)CCCF)ncc(F)c1[C@@H]1c2[nH]c3ccccc3c2C[C@@H](C)N1C(C)CC(=O)O (single isomer, unassigned) [Example 158]	21 % free
Cc1c(OCCNCCC(F)F)ccc(F)c1[C@@H]1c2[nH]c3ccc(F)cc3c2C[C@@H](C)N1C[C@@H](C)C(=O)O [Example 162, (R)-3-((1R,3R)-1-(3-(2-((3,3-difluoropropyl)amino)ethoxy)-6-fluoro-2-methylphenyl)-6-fluoro-3-methyl-1,3,4,9-tetrahydro-2H-pyrido[3,4-b]indol-2-yl)-2-methylpropanoic Acid]	27 % free
Cc1c(N(C)CCN(C)CCCF)ccc(F)c1[C@@H]1c2[nH]c3ccccc3c2C[C@@H](C)N1C[C@H](C)C(=O)O [Example 147, (S)-3-((1R,3R)-1-(6-fluoro-3-((2-((3-fluoropropyl)(methyl)amino)ethyl)(methyl)amino)-2-methylphenyl)-3-methyl-1,3,4,9-tetrahydro-2H-pyrido[3,4-b]indol-2-yl)-2-methylpropanoic acid]	19 % free
C[C@@H]1Cc2c([nH]c3ccccc23)[C@@H](c2ccnc(OCCNCCCF)c2Cl)N1CC(F)(F)CO [Example 104, 3-((1R,3R)-1-(3-chloro-2-(2-((3-fluoropropyl)amino)ethoxy)pyridin-4-yl)-3-methyl-1,3,4,9-tetrahydro-2H-pyrido[3,4-b]indol-2-yl)-2,2-difluoropropan-1-ol]	2.8 % free
Cc1c(NCCNCCCF)ccnc1[C@@H]1c2[nH]c3ccccc3c2C[C@@H](C)N1CC(F)(F)F [Example 95, N1-(3-fluoropropyl)-N2-(3-methyl-2-((1S,3R)-3-methyl-2-(2,2,2-trifluoroethyl)-2,3,4,9-tetrahydro-1H-pyrido[3,4-b]indol-1-yl)pyridin-4-yl)ethane-1,2-diamine]	4.6 % free
COc1ccc(OCCNCCCF)c(F)c1[C@@H]1c2[nH]c3ccccc3c2C[C@@H](C)N1CC(F)(F)CO [Example 81, 2,2-difluoro-3-((1R,3R)-1-(2-fluoro-3-(2-((3-fluoropropyl)amino)ethoxy)-6-methoxyphenyl)-3-methyl-1,3,4,9-tetrahydro-2H-pyrido[3,4-b]indol-2-yl)propan-1-ol]	2.9 % free
CC(CN1[C@H](c2c(Cl)ccc(OCCNCCCF)c2Cl)c2[nH]c3ccc(F)cc3c2C[C@H]1C)C(=O)O (single isomer, unassigned) [Example 130]	7.8 % free
Cc1c(NCCNCCCF)ccc(F)c1[C@@H]1c2[nH]c3ccccc3c2C[C@@H](C)N1C[C@H](C)C(=O)O [Example 135, (S)-3-((1R,3R)-1-(6-fluoro-3-((2-((3-fluoropropyl)amino)ethyl)amino)-2-methylphenyl)-3-methyl-1,3,4,9-tetrahydro-2H-pyrido[3,4-b]indol-2-yl)-2-methylpropanoic acid]	32 % free
COc1ccc(OCCNCCC(F)(F)F)cc1[C@@H]1c2[nH]c3ccccc3c2C[C@@H](C)N1CC(F)(F)F [Example 72, 3,3,3-trifluoro-N-(2-(4-methoxy-3-((1R,3R)-3-methyl-2-(2,2,2-trifluoroethyl)-2,3,4,9-tetrahydro-1H-pyrido[3,4-b]indol-1-yl)phenoxy)ethyl)propan-1-amine]	<0.1 % free

Second part, the compound after the results:

Human plasma protein binding (% free)	SMILES
0.41 % free	C[C@@H]1Cc2c([nH]c3ccccc23)[C@@H](c2cc(F)cc(OCCNCCCF)c2F)N1CC(F)(F)F [Example 31, N-(2-(2,5-difluoro-3-((1R,3R)-3-methyl-2-(2,2,2-trifluoroethyl)-2,3,4,9-tetrahydro-1H-pyrido[3,4-b]indol-1-yl)phenoxy)ethyl)-3-fluoropropan-1-amine]
1 % free	C[C@@H]1Cc2c([nH]c3ccccc23)[C@@H](c2c(F)cnc(OCCNCCCF)c2F)N1CC(F)(F)F [Example 107, N-(2-((3,5-difluoro-4-((1R,3R)-3-methyl-2-(2,2,2-trifluoroethyl)-2,3,4,9-tetrahydro-1H-pyrido[3,4-b]indol-1-yl)pyridin-2-yl)oxy)ethyl)-3-fluoropropan-1-amine]
5.4 % free	C[C@@H]1Cc2c([nH]c3ccccc23)[C@@H](c2cc(OCCNCCCF)ccn2)N1CC(F)(F)F [Example 35, 3-fluoro-N-(2-((2-((1S,3R)-3-methyl-2-(2,2,2-trifluoroethyl)-2,3,4,9-tetrahydro-1H-pyrido[3,4-b]indol-1-yl)pyridin-4-yl)oxy)ethyl)propan-1-amine]
0.22 % free	COc1ccc(OCCNCCCF)c(C)c1[C@@H]1c2[nH]c3ccccc3c2C[C@@H](C)N1CC(F)(F)F [Example 26, 3-fluoro-N-(2-(4-methoxy-2-methyl-3-((1R,3R)-3-methyl-2-(2,2,2-trifluoroethyl)-2,3,4,9-tetrahydro-1H-pyrido[3,4-b]indol-1-yl)phenoxy)ethyl)propan-1-amine]
8.4 % free	C[C@@H]1Cc2c([nH]c3ccccc23)[C@@H](c2cncc(OCCNCCCF)c2)N1CC(F)(F)F [Example 101, 3-fluoro-N-(2-((5-((1R,3R)-3-methyl-2-(2,2,2-trifluoroethyl)-2,3,4,9-tetrahydro-1H-pyrido[3,4-b]indol-1-yl)pyridin-3-yl)oxy)ethyl)propan-1-amine]
1.8 % free	COc1ncc(NCCNCCCF)cc1[C@@H]1c2[nH]c3ccccc3c2C[C@@H](C)N1CC(F)(F)F [Example 41, N1-(3-fluoropropyl)-N2-(6-methoxy-5-((1R,3R)-3-methyl-2-(2,2,2-trifluoroethyl)-2,3,4,9-tetrahydro-1H-pyrido[3,4-b]indol-1-yl)pyridin-3-yl)ethane-1,2-diamine]
1 % free	Cc1ccc(OCCNCCCF)nc1[C@@H]1c2[nH]c3ccccc3c2C[C@@H](C)N1CC(F)(F)F [Example 105, 3-fluoro-N-(2-((5-methyl-6-((1S,3R)-3-methyl-2-(2,2,2-trifluoroethyl)-2,3,4,9-tetrahydro-1H-pyrido[3,4-b]indol-1-yl)pyridin-2-yl)oxy)ethyl)propan-1-amine]
23 % free	C[C@@H]1Cc2c([nH]c3ccccc23)[C@@H](c2cc(OCCNCCCF)ccc2CO)N1CC(F)(F)F [Example 70, (4-(2-((3-fluoropropyl)amino)ethoxy)-2-((1R,3R)-3-methyl-2-(2,2,2-trifluoroethyl)-2,3,4,9-tetrahydro-1H-pyrido[3,4-b]indol-1-yl)phenyl)methanol]
0.52 % free	C[C@@H]1Cc2c([nH]c3ccccc23)[C@@H](c2c(F)c(F)cc(OCCNCCCF)c2F)N1CC(F)(F)F [Example 32, 3-fluoro-N-(2-(2,4,5-trifluoro-3-((1R,3R)-3-methyl-2-(2,2,2-trifluoroethyl)-2,3,4,9-tetrahydro-1H-pyrido[3,4-b]indol-1-yl)phenoxy)ethyl)propan-1-amine]
1.7 % free	Cc1c(OCCNCCCF)ncnc1[C@@H]1c2[nH]c3ccccc3c2C[C@@H](C)N1CC(F)(F)F [Example 114, 3-fluoro-N-(2-((5-methyl-6-((1S,3R)-3-methyl-2-(2,2,2-trifluoroethyl)-2,3,4,9-tetrahydro-1H-pyrido[3,4-b]indol-1-yl)pyrimidin-4-yl)oxy)ethyl)propan-1-amine]
2.2 % free	C[C@@H]1Cc2c([nH]c3ccccc23)[C@@H](c2cccc(OCCNCCCF)c2C#N)N1CC(F)(F)F [Example 69, 2-(2-((3-fluoropropyl)amino)ethoxy)-6-((1R,3R)-3-methyl-2-(2,2,2-trifluoroethyl)-2,3,4,9-tetrahydro-1H-pyrido[3,4-b]indol-1-yl)benzonitrile]
